In BindingDB's records for doi:10.3109/14756366.2012.681650 (East China University of Science and Technology, 2013):
Where “and” joins values, the source holds several entries; their conditions need not be identical. Equal entries are not always repeated.

Target: T1, Interstitial collagenase [100-268] (Homo sapiens, UniProt P03956)
T1 construct: 100-268
T1 sequence (P03956 whole entry): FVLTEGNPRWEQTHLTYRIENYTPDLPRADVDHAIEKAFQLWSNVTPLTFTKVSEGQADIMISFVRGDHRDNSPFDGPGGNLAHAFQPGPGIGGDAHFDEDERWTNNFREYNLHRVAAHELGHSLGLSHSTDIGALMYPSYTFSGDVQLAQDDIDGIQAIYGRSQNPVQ
Assay: cd-MMP-1 Activity Assay
Details: pH 7.5
Experimental: The activity of cd-MMP-1 was measured using a fluorescence-based assay. It was performed in white 96-well half area microplate (Greiner) in a final volume of 100 μL. […] The reaction was initiated by the addition of 50 μl of quenched fluorogenic peptide substrate: Dnp-Pro-beta-cyclohexyl-Ala-Gly-Cys(Me)-His-Ala-Lys(Nma)-NH2 (final concentration 5 μM). The cd-MMP-1 activity was determined in an Synergy™ 2 Multi-Mode Microplate Reader(BioTek) at an excitation wavelength of 360 nm and an emission wavelength of 460 nm.

IC50	Structure (SMILES)
4850 nM	O=c1c(O)c(-c2ccc(O)cc2O)oc2cc(O)cc(O)c12 [2-(2,4-dihydroxyphenyl)-3,5,7-trihydroxychromen-4-one]
10 nM	CNC(=O)C(CCc1ccccc1)NC(=O)C(CC(=O)NO)CC(C)C (stereo unspecified)
13 nM	COc1ccc(S(=O)(=O)N2CC(C)(C)CN(S(=O)(=O)c3ccc(OC)cc3)C2C(=O)NO)cc1 [1,3-BIS-(4-METHOXY-BENZENESULFONYL)-5,5-DIMETHYL-HEXAHYDRO-PYRIMIDINE-2-CARBOXYLIC ACID HYDROXYAMIDE]

Second part, the compound before the results:

Structure (SMILES)	IC50
O=c1c(O)c(-c2cc(O)c(O)c(O)c2)oc2cc(O)cc(O)c12	2920 nM
O=c1c(O)c(-c2ccc(O)cc2)oc2cc(O)cc(O)c12	1350 nM and 3920 nM
O=c1cc(-c2ccc(O)c(O)c2)oc2cc(O)cc(O)c12 [2-(3,4-dihydroxyphenyl)-5,7-dihydroxy-4H-chromen-4-one]	3030 nM
